Experimental findings from US8293681B2, “Seed treatment agent and method for protecting plant” (Sumitomo Chemical Company, Ltd., priority 2008, dated 2012) are described below.

The test system of experiment [1] is root rot on pea (Fusarium solani f. sp. pisi). Kind of experiment: Test Example 1: seed treatment of pea, control of root rot. The class given is in vivo. To be noted: pea seeds, 10 gai/100 kg seed. As to the method:
(§1) 10 μl of a dimethylsulphoxide solution of the compound (1b) and 10 g of pea (Waiseiakabanakinusaya) seeds were put in a 50 ml tube and mixed to allow the compound (1b) to stick to the surface of the seeds and then the mixture was allowed to stand still overnight to obtain treated seeds of the present invention. A plastic pot was filled with sandy soil, and the treated seeds of the present invention were disseminated. Then the seeds were covered with sandy soil, which had been mixed with a bran medium on which root rot on pea (Fusarium solani f. sp. pisi) had been allowed to grow and the peas were grown in a greenhouse of from 22 to 24° C. for six days while sprinkling water appropriately. A spore suspension of root rot on pea was perfused on the root of the seedlings for inoculation and the peas were allowed to grow in a greenhouse for further six days and the control effect was checked.
Besides, the incidence of disease was also checked in the case of seeds without the treatment with the agent in order to calculate the control value.
(§2) The incidence of disease was calculated by Equation 1 and the control value was calculated by Equation 2 based on the incidence of disease.
Incidence of disease=(Number of no budding seeds and number of seedlings in which development of disease was observed)×100/(Number of total disseminated seeds) “Equation 1” Control value=100×(A−B)/A “Equation 2” […]

Another experiment concerns rice 'Bakanae' disease. Description: Test Example 2: immersion of unhulled rice seeds affected with rice 'Bakanae' disease. The class given is in vivo, Gibberella fujikuroi. Set-up: key to Incidence of disease: % of seedlings diseased: diseased×100/total seedlings; key to Control value: 100×(A−B)/A, from incidence of disease (untreated A, treated B). To be noted: rice seeds immersed 24 hours; for Incidence of disease: untreated 19.2. As for the experimental part:
Incidence of disease=(Number of no budding seeds and number of seedlings in which development of disease was observed)×100/(Number of total disseminated seeds) “Equation 1” Control value=100×(A−B)/A “Equation 2” The flowable of the compound (1a) and the flowable of the compound (1b) were diluted with water to prepare an agent solution containing the compound (1a) or compound (1b). Unhulled rice seeds (Tanginbozu) affected with rice ‘Bakanae’ disease was immersed in the agent solution for 24 hours and then the unhulled rice seeds were taken out of the agent solution and air dried to obtain treated seeds. The treated seeds were immersed in water at 12° C. for 4 days and subsequently in water at 30° C. overnight. A plastic pot was filled with sandy soil, and the treated seeds were disseminated and allowed to grow in a greenhouse at 26° C. for 23 days to investigate the control effect. Besides, the incidence of disease was also checked in the case of seeds without the treatment with the agent in order to calculate the control value. The incidence of disease was calculated by Equation 3 and the control value was calculated based on the incidence of disease by Equation 2. Incidence of disease=(Number of seedlings in which development of disease was observed)×100/(Number of total seedlings) “Equation 3”

Experiment [2] has as its system root rot on pea (Fusarium solani f. sp. pisi). Description: Test Example 3: seed treatment of pea, control of root rot, with reference compounds. The class given is in vivo. Set-up: key to Incidence of disease: % = (non-budding seeds + diseased seedlings)×100/total seeds; key to Control value: control value = 100×(A−B)/A, A = untreated, B = treated incidence. As to conditions: pea seeds; for Incidence of disease: untreated 53. As for the experimental part: Incidence of disease=(Number of no budding seeds and number of seedlings in which development of disease was observed)×100/(Number of total disseminated seeds) “Equation 1” Control value=100×(A−B)/A “Equation 2”
as §1, with “of the compound (1a) or compound (1b)” for “of the compound (1b)”, “allow the compound (1a) or compound (1b)” for “allow the compound (1b)”
Besides, the incidence of disease was also checked in the case of seeds without the treatment with the agent in order to calculate the control value. Also, 2-[2-(2-methyl-phenoxymethyl)-phenyl]-2-methoxy-N-methyl-acetamide, which is described in International Publication WO 95/27,693 and hereinafter referred to as compound A, and 2-[2-(2-chloro-5-methyl-phenoxymethyl)-phenyl]-2-methoxy-N-methyl-acetamide, which is described in International Publication WO 96/07,633 and hereinafter referred to as compound B, were used as reference compounds.
as §2

For `CNC(=O)C(OC)c1ccccc1COc1cc(C)ccc1C` (racemic) [Compound (1b)], the Control value came to 100 in experiment [1]; 95 in the experiment on rice 'Bakanae' disease (62.5 ppm); 93 in the experiment with rice 'Bakanae' disease (125 ppm); 92 in the experiment on rice 'Bakanae' disease (500 ppm); 93 in the experiment on rice 'Bakanae' disease (2000 ppm); 81 in experiment [2] (2.5 gai/100 kg seed). In addition, the Control value in experiment [2] (10 gai/100 kg seed) is listed as 100. In addition, the Incidence of disease in experiment [1] (untreated 33) came to 0; in the experiment with rice 'Bakanae' disease (62.5 ppm), 0.9; in the experiment with rice 'Bakanae' disease (125 ppm) it was 1.4; with rice 'Bakanae' disease (500 ppm), 1.6; in the experiment with rice 'Bakanae' disease (2000 ppm), 1.3; in experiment [2] (2.5 gai/100 kg seed), 10. For the same compound, the Incidence of disease in experiment [2] (10 gai/100 kg seed) worked out at 0.
As to `CNC(=O)[C@H](OC)c1ccccc1COc1cc(C)ccc1C` [Compound (1a)], in experiment [2] (2.5 gai/100 kg seed), the Control value amounted to 97 and the Incidence of disease is 4. Besides, in experiment [2] (10 gai/100 kg seed), the Control value is 100 and the Incidence of disease is listed as 0.
Taken in the same sequence, the figures for `CNC(=O)C(OC)c1ccccc1COc1ccccc1C` (centres unmarked) [Compound A, 2-[2-(2-methyl-phenoxymethyl)-phenyl]-2-methoxy-N-methyl-acetamide, reference compound] were 57, 23, 87 and 7.
On to `CNC(=O)C(OC)c1ccccc1COc1cc(C)ccc1Cl` (centres unmarked) [Compound B, 2-[2-(2-chloro-5-methyl-phenoxymethyl)-phenyl]-2-methoxy-N-methyl-acetamide, reference compound], for which, in experiment [2] (2.5 gai/100 kg seed), the Control value was 62 and the Incidence of disease is reported as 20. In experiment [2] (10 gai/100 kg seed), the Control value came out at 81 and the Incidence of disease came out at 10.
